Data: patent publication US20110065675A1, “AZO DYE RELATED SMALL MOLECULE MODULATORS OF PROTEIN-PROTEIN INTERACTIONS” (University of Miami, priority 2008, published 2011)
Where two headings read alike, the source gives them in different places.

Assays:
human CD40/CD154 = target: T1, human CD40/CD154 (Homo sapiens, UniProt P29965); experiment: Human CD40/CD154 binding inhibition assay (cell-free, plate-based)
T1 construct: CD154 (soluble human, FLAG-tagged, recombinant from Alexis Biochemicals; MW=18 kDa); purchased Alexis Biochemicals
T1 sequence (P29965 113-261 limits assumed): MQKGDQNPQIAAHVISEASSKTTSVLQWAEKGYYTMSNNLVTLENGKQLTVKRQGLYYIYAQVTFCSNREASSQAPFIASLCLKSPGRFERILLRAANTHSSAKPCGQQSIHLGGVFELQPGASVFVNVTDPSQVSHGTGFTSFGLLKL
Method: A 96-well plate-based cell-free in vitro binding inhibition assay, which is a modification of an assay described in U.S. Pat. No. 7,173,046, incorporated by reference in its entirety, has been developed and used for activity screening. Briefly, CD40 is coated at a preselected concentration, and binding of (FLAG-tagged) CD154 is measured by reacting with secondary antibody and using TMB liquid substrate system as a substrate for horseradish peroxidase for reading at 450 nm. The detailed procedure is as follows: Microtiter plates (Nunc F MaxiSorp) were coated with […] of CD40: Fc (human:Fc human, recombinant from Alexis Biochemicals; MW=54 kDa) diluted in PBS pH 7.2 at a preselected concentration of 0.3125 μg/mL. Plates were covered with plate sealer and stored overnight at 4° C. The liquid was removed from the plates and blotted dry. Plates were blocked by washing once with approx. 300 μL/well of Blocking Solution (PBS pH 7.2, 0.05% Tween-20, 1% BSA) and incubated with the same solution for 1 hour at room temperature (RT) or at 4° C. overnight. Coated plates were washed three times with Washing Solution (PBS pH 7.4, 0.05% Tween-20) and blotted dry. A preselected dilution of CD154 (soluble human, FLAG-tagged, recombinant from Alexis Biochemicals; MW=18 kDa) of 0.0087500875 μg/mL range was prepared in 100 mM HEPES, 0.005% BSA pH 7.2. Binding was carried out by adding 100 μL of this CD154 dilution/well and incubating at RT in the presence of test compounds (or blank as negative control). After incubation, the plates were washed with Washing Solution and blotted dry. Bound CD154 was detected with 200 μL/well of secondary antibody mAb ANTI-FLAG M2—Peroxidase Conjugate (anti-FLAG M2-peroxidase HRP conjugate; Sigma-Aldrich) diluted 1:40,000 in Washing Solution. After incubation, the plates were washed and blotted dry. 200 μL/well of the HR-Peroxidase substrate TMB (3,3′,5,5′-tetramethylbenzidine; Sigma-Aldrich) were added, and the plates were incubated for approximately 30 minutes in the dark. The reaction was stopped with 0.5 M H2SO4 and read at 450 nm. All conditions were tested in at least three independent experiments in duplicate or triplicate per plates. Data were normalized and fitted with standard log inhibitor vs. response models using GraphPad Prism 5 to establish median inhibitory ICso values.
A representative result using the monoclonal anti-human CD154 antibody (R&D Systems, monoclonal anti-human CD40 ligand/TNFSF5 antibody, MAB617; MW≈150 kDa used) as positive control is shown in FIG. 1.
Binding inhibition assays with this system provided consistent and well-reproducible results, as FIG. 1 (bottom), focusing on the concentration range of their activities, illustrates. […] The effect of DMSO, which was used as the diluting solvent for the non-water-soluble compounds and is a standard solvent in HTS assays, on the integrity of the assay has been examined. DMSO concentrations above 10% interfere with the binding assay, but concentrations below 3% have no effect. […] Because 5 or 10 mM stock solutions were used, all IC50 values below 250 μM can be considered as unaffected by DMSO.

human TNF-R1/TNFα = human TNF-R1/TNFα (Homo sapiens, UniProt P01375+P19438); experiment: Specificity test: human TNF-R1/TNFα binding inhibition assay; details: for IC50: cell-free binding, read-out: Human TNFR1/TNFα IC50
Source text: A main concern for the therapeutic applicability of these compounds and of small molecule PPI inhibitors in general is related to their ability to achieve some acceptable degree of selectivity/specificity for the PPI of interest. To identify compounds that show acceptable specificity for the CD40/CD154 system, their ability to inhibit the TNF-R1/TNF-α PPI was investigated since this is particularly relevant as CD154 is part of the TNF superfamily. The experimental setup used was very similar to the one described in Example 1, but using plate-coated TNF-R1 and TNF-α as ligand (with a corresponding anti-TNF-α mAb as positive control). The concentration of TNF-R1 and TNF-α used were 0.6 μg/mL and 0.02 μg/mL, respectively.

[1] = cell-free binding, read-out: Human CD40/CD154 IC50
[2] = cell-free binding, read-out: Human CD40/CD154 IC50 (ug/mL) (converted)

Sequence of human TNF-R1/TNFα (P01375 77-233 limits assumed): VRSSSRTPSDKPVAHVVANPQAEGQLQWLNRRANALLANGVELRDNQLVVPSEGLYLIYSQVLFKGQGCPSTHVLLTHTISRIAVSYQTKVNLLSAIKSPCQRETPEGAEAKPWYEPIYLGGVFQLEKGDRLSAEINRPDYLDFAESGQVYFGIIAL
Sequence of human TNF-R1/TNFα (P19438 30-211 limits assumed): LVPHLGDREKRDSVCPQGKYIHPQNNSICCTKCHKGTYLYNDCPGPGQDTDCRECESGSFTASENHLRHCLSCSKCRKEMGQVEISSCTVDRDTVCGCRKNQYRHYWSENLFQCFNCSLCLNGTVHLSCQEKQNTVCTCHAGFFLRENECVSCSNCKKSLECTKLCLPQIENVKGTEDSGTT

Molecule	Human CD40/CD154 IC50 (human CD40/CD154; cell-free binding) [µg/mL]	IC50 (human CD40/CD154; [1]) [µM]	Human CD40/CD154 log IC50 (human CD40/CD154; log of IC50, cell-free binding)	IC50 (human CD40/CD154; [2]) [µM]	IC50 (human CD40/CD154; log of IC50, cell-free binding, read-out: Human CD40/CD154 log IC50 (converted)) [µM]	IC50 (human TNF-R1/TNFα) [µM]	Human TNFR1/TNFα log IC50 (human TNF-R1/TNFα; log of IC50, cell-free binding)
direct blue 120	1.4	1.6	−5.80				
direct red 53	16.2	24.4	−4.61				
O=S(=O)([O-])c1cccc(N=Nc2ccc(N=Nc3ccc(Nc4ccccc4)c4c(S(=O)(=O)[O-])cccc34)c3ccccc23)c1.[Na+].[Na+] [Acid blue 113, acid blue 113]	0.8	1.1	−5.95				
Cc1cc(-c2ccc(/N=N/c3ccc4c(S(=O)(=O)O)cc(S(=O)(=O)O)c(N)c4c3O)c(C)c2)ccc1/N=N/c1ccc2c(S(=O)(=O)O)cc(S(=O)(=O)O)c(N)c2c1O [Evans blue]				1.6	1.45		
Nc1ccc2c(O)c(N=Nc3ccc(N=Nc4ccc(N=Nc5cc(S(=O)(=O)[O-])c6cccc(S(=O)(=O)[O-])c6c5)c5ccccc45)c4ccc(S(=O)(=O)[O-])cc34)c(S(=O)(=O)[O-])cc2c1.[Na+].[Na+].[Na+].[Na+] [Direct blue 71, direct blue 71]	2.2	2.1	−5.68			98.5	−4.01
CCOc1ccc(N=Nc2ccc(-c3ccc(N=Nc4c(O)ccc5cc(S(=O)(=O)[O-])cc(S(=O)(=O)[O-])c45)cc3)cc2)cc1.[Na+].[Na+] [Direct red 37, direct red 37]	8.8	13	−4.88				
acid red 188	7.0	12.8	−4.89				
COc1cc(-c2ccc(N=Nc3c(S(=O)(=O)[O-])cc4cc(S(=O)(=O)[O-])cc(N)c4c3O)c(OC)c2)ccc1N=Nc1c(S(=O)(=O)[O-])cc2cc(S(=O)(=O)[O-])cc(N)c2c1O.[Na+].[Na+].[Na+].[Na+] [Direct blue 15, direct blue 15]	1.4	1.4	−5.86				
Nc1c(/N=N/c2ccc(-c3ccc(/N=N/c4cc(S(=O)(=O)O)c5ccccc5c4N)cc3)cc2)cc(S(=O)(=O)O)c2ccccc12 [Congo red]		5.7		6.13		34.9	
